Laboratory results as given in US20170368148A1, “USES OF A PTHrP ANALOGUE IN REDUCING FRACTURE RISK” (RADIUS HEALTH, INC., priority 2015, published 2017).
Marks after values point to notes of the source that are not given here.

Key:
[1] = tested on: postmenopausal women with osteoporosis; experiment: ACTIVE trial: BMD by DXA; assay type: in vivo, human; conditions: for Mean percent change in BMD from baseline (ANCOVA), Femoral Neck / Mean percent change in BMD from baseline (ANCOVA), Lumbar Spine / Mean percent change in BMD from baseline (ANCOVA), Total Hip / Mean percent change in BMD from baseline (MMRM), Femoral Neck / Mean percent change in BMD from baseline (MMRM), Lumbar Spine / Mean percent change in BMD from baseline (MMRM), Total Hip: abaloparatide 80 μg or teriparatide 20 μg daily
Description: (§1) BMD and bone turnover biomarkers (CTX and P1NP) were also evaluated in all patient groups to compare the effects of abaloparatide versus teriparatide.
As set forth in the ACTIVE protocol, the primary efficacy endpoint was the number of patients treated with abaloparatide with incident vertebral fractures at the end of treatment as compared to those who received placebo. The pre-specified secondary efficacy parameters included, among other endpoints, reduction in the incidence/risk of non-vertebral fractures; changes in BMD of the spine, hip, and femoral neck from baseline to end of treatment as assessed by DXA and as compared to teriparatide; and the number of hypercalcemic events in abaloparatide treated patients when compared to teriparatide at end of treatment.
Comparative analyses of abaloparatide versus teriparatide were completed on the following BMD secondary endpoints using a Mixed-Effect Model for Repeated Measures (MMRM) method, shown in Table 4 below:
Comparative analyses of the PTHrP analogues abaloparatide and teriparatide were completed on the following BMD secondary endpoints using an ANCOVA approach, shown in Table 5 below: […]

[2] = tested on: postmenopausal osteoporotic women; experiment: Trabecular bone score (TBS) from spinal DXA, phase 2 trial; assay type: in vivo, human; conditions: 20 μg daily SC
From the text: To assess the effects of the PTHrP analogue abaloparatide on trabecular microarchitecture as indirectly assessed by TBS, the TBS (TBS Calculator v2.2, Medimaps group, Plan-les-Ouates, Geneva, Switzerland) in a blinded fashion at 0, 12, and 24-weeks in 222 postmenopausal osteoporotic women (age 55-85) who were randomized to receive 24-weeks of daily subcutaneous injections of placebo, abaloparatide 20-μg, abaloparatide 40-μg. abaloparatide 80-μg, or teriparatide (TPTD) 20-μg was retrospectively calculated. Between groups differences in the mean percent TBS changes were assessed by unpaired t-test.

[3] = tested on: postmenopausal women with osteoporosis; experiment: ACTIVE trial: adverse events; conditions: 18 months; abaloparatide 80 μg (n = 822), teriparatide 20 μg (n = 818)
Description: Safety evaluations performed in the ACTIVE trial included physical examinations, vital signs, 12-lead electrocardiograms, or ECGs, clinical laboratory tests and monitoring, and recording of adverse events. Specific safety assessments included pre-dose and post-dose (four hours) determination of serum calcium, determination of creatinine clearance, post-dose ECG assessments at selected visits, and assessments of postural hypotension (60 minutes post-dose) at selected clinic visits.
The ACTIVE trial also evaluated several potential safety measures, including blood calcium levels, orthostatic hypotension, nausea, dizziness, and injection-site reactions.

[4] = tested on: postmenopausal women with osteoporosis; experiment: Phase 2 24-week trial: serum biochemical markers of bone turnover; assay type: in vivo, human; conditions: 24 weeks; 20 μg daily SC
Description: Biochemical Markers of bone turnover: Fasting morning blood samples (collected 24 hours after last injection if taking teriparatide) were obtained at each visit. Serum osteocalcin (OC) was measured via electrochemiluminescence assay (Roche Diagnostics, Basel, Switzerland), with […] coefficients of variation (CVs) of 1.8% and 4.8% respectively. Serum amino-terminal propeptide of type 1 procollagen (P1NP) was measured via radioimmunoassay (Orion Diagnostica, Espoo, Finland) with inter- and intra-assay CVs of 4.5% and 5.5% respectively. Serum β-c-terminal telopeptide of type one collagen (CTX) was measured via electrochemiluminescence assay (Roche Diagnostics, Basel, Switzerland) with inter- and intraassay CVs of 3.8% and 6.9% respectively.

[5] = tested on: postmenopausal women with osteoporosis; experiment: ACTIVE trial: bone turnover markers (CTX, P1NP); assay type: in vivo, human; conditions: at 18 months
Description: The ACTIVE phase 3 fracture prevention trial was conducted for abaloparatide in postmenopausal women with osteoporosis who were otherwise healthy. The enrolled subjects were treated with 80 micrograms (μg) of abaloparatide, a matching placebo, or the approved daily dose of 20 μg of teriparatide for 18 months. The ACTIVE trial evaluated fracture rates, fracture risks, BMD, and bone turnover biomarkers (e.g., CTX and P1NP) in all patient groups.
as §1

[6] = tested on: postmenopausal women with osteoporosis; experiment: Phase 2 24-week dose-finding trial (48-week extension): BMD by DXA; assay type: in vivo, human
From the text: Healthy postmenopausal women between the ages of 55 to 85 (based on a 5-year history of amenorrhea and an elevated serum level of FSH) were enrolled in the study if they met one of the following the following definitions of osteoporosis:
Dual X-ray absorptiometry: DXA scans were obtained at each local site and then sent to a central imaging reader (BioClinica Inc. Newton, PA) where they underwent a quality control review and then analyzed according to each manufacturers guidelines. Scans performed during the treatment period on the same instrument used for the baseline scan were acquired. Each study site performed Instrument Quality Control over time (instrument standardization and phantom calibration) that was reviewed by the central reader.
BMD was re-measured at the 48-week visit.

[7] = tested on: postmenopausal women with osteoporosis; experiment: Phase 2 trial: safety, serum calcium, antibody formation; conditions: 20 μg daily SC
Description: All subjects received supplemental calcium (500-1000 mg) and vitamin D (400-800 IU) per local practice. […] Blood calcium levels were assessed 4-hours and 24-hours after drug administration. Subjects were monitored for adverse events (AEs) and local tolerance at the injection site at each visit. Clinical and laboratory safety parameters, electrocardiograms, were also measured at each study visit.
Efficacy and safety were assessed using all randomized patients who received at least one dose of study drug. Baseline characteristics and safety parameters were summarized using descriptive statistics. […] All hypotheses were tested at the 2-sided 5% significance level.

[8] = 24 weeks, abaloparatide 80 μg, teriparatide 20 μg, valid-completers
[9] = 48 weeks (extension), 20 μg daily SC

SMILES: CC[C@H](C)[C@H](NC(=O)[C@H](CCC(=O)O)NC(=O)[C@H](CO)NC(=O)[C@@H](NC(=O)[C@@H](N)CO)C(C)C)C(=O)N[C@@H](CCC(N)=O)C(=O)N[C@@H](CC(C)C)C(=O)N[C@@H](CCSC)C(=O)N[C@@H](Cc1cnc[nH]1)C(=O)N[C@@H](CC(N)=O)C(=O)N[C@@H](CC(C)C)C(=O)NCC(=O)N[C@@H](CCCCN)C(=O)N[C@@H](Cc1cnc[nH]1)C(=O)N[C@@H](CC(C)C)C(=O)N[C@@H](CC(N)=O)C(=O)N[C@@H](CO)C(=O)N[C@@H](CCSC)C(=O)N[C@@H](CCC(=O)O)C(=O)N[C@@H](CCCN=C(N)N)C(=O)N[C@H](C(=O)N[C@@H](CCC(=O)O)C(=O)N[C@@H](Cc1c[nH]c2ccccc12)C(=O)N[C@@H](CC(C)C)C(=O)N[C@@H](CCCN=C(N)N)C(=O)N[C@@H](CCCCN)C(=O)N[C@@H](CCCCN)C(=O)N[C@@H](CC(C)C)C(=O)N[C@@H](CCC(N)=O)C(=O)N[C@@H](CC(=O)O)C(=O)N[C@H](C(=O)N[C@@H](Cc1cnc[nH]1)C(=O)N[C@@H](CC(N)=O)C(=O)N[C@@H](Cc1ccccc1)C(=O)O)C(C)C)C(C)C [teriparatide, hPTH(1-34)]
- Mean percent change in BMD from baseline (ANCOVA), Femoral Neck ([1]; 6 mo): 0.80%*
- Mean percent change in BMD from baseline (ANCOVA), Lumbar Spine ([1]; 6 mo): 4.84%*
- Mean percent change in BMD from baseline (ANCOVA), Total Hip ([1]; 6 mo): 1.33%*
- Mean percent change in BMD from baseline (MMRM), Femoral Neck ([1]; 6 mo): 0.87%*
- Mean percent change in BMD from baseline (MMRM), Lumbar Spine ([1]; 6 mo): 5.25%*
- Mean percent change in BMD from baseline (MMRM), Total Hip ([1]; 6 mo): 1.44%*
- Mean percent change in BMD from baseline (ANCOVA), Femoral Neck ([1]; 12 mo): 1.41%*
- Mean percent change in BMD from baseline (ANCOVA), Lumbar Spine ([1]; 12 mo): 7.40%*
- Mean percent change in BMD from baseline (ANCOVA), Total Hip ([1]; 12 mo): 2.03%*
- Mean percent change in BMD from baseline (MMRM), Femoral Neck ([1]; 12 mo): 1.54%*
- Mean percent change in BMD from baseline (MMRM), Lumbar Spine ([1]; 12 mo): 8.28%*
- Mean percent change in BMD from baseline (MMRM), Total Hip ([1]; 12 mo): 2.29%*
- Subjects with increased BMD of >3% at all three sites (lumbar spine, total hip, femoral neck) ([1]; 12 months): 19.8%
- Mean percent change in BMD from baseline (ANCOVA), Femoral Neck ([1]; 18 mo): 2.26%*
- Mean percent change in BMD from baseline (ANCOVA), Lumbar Spine ([1]; 18 mo): 9.12%*
- Mean percent change in BMD from baseline (ANCOVA), Total Hip ([1]; 18 mo): 2.81%*
- Mean percent change in BMD from baseline (MMRM), Femoral Neck ([1]; 18 mo): 2.66%*
- Mean percent change in BMD from baseline (MMRM), Lumbar Spine ([1]; 18 mo): 10.49%*
- Mean percent change in BMD from baseline (MMRM), Total Hip ([1]; 18 mo): 3.26%*
- Subjects with increased BMD of >3% at all three sites (lumbar spine, total hip, femoral neck) ([1]; 18 months): 32.0%
- Subjects with increased BMD of >3% at all three sites (lumbar spine, total hip, femoral neck) ([1]; month 6): 6.5%
- TBS mean percent change ([2]; 12 weeks): +1.5%
- TBS mean percent change ([2]; 24 weeks): +2.6%
- AE: Arthralgia [3]: 8.6%
- AE: Back pain [3]: 7.2%^‡
- AE: Constipation [3]: 4.2%
- AE: Dizziness [3]: 7.3%
- AE: Headache [3]: 6.2%
- AE: Hypercalcemia (serum albumin-corrected calcium value ≧10.7 mg/dL) [3]: 6.37%^†
- AE: Hypercalciuria [3]: 12.5%^‡
- AE: Hypertension [3]: 5.0%
- AE: Influenza [3]: 4.2%
- AE: Nasopharyngitis [3]: 6.5%
- AE: Nausea [3]: 5.1%^‡
- AE: Pain in extremity [3]: 5.1%
- AE: Palpitations [3]: 1.6%^‡
- AE: Upper respiratory tract infection [3]: 8.9%
- AE: Urinary tract infection [3]: 5.0%
- CTX increase, median (interquartile range) [4]: 76 (13, 130) %
- P1NP increase, median (interquartile range) [4]: 98 (21, 184) %
- CTX level compared to placebo [5]: elevated levels compared to placebo
- Femoral neck BMD increase ([6]; 24 weeks, 20 μg daily SC): 1.1±4.6%
- Lumbar spine BMD increase (±SD) ([6]; 24 weeks, 20 μg daily SC): 5.5±4.1%
- Total hip BMD increase ([6]; 24 weeks, 20 μg daily SC): 0.5±3.9%
- Percentage of subjects with a >3% BMD gain at the lumbar spine [6, 8]: 70%
- Percentage of subjects with a >3% total hip BMD gain [6, 8]: 16%
- Femoral neck BMD increase [6, 9]: 2.2%
- Lumbar spine BMD increase [6, 9]: 8.6%
- Total hip BMD increase [6, 9]: 1.3%
- Highest serum calcium value obtained by any subject ([7]; 4-hours post-dose): 12.6 mg/dL
- Patients with serum calcium levels ≧10.5 mg/dL ([7]; 4-hours post-dose): 40%
- Patients with serum calcium levels ≧10.5 mg/dL ([7]; 24-hours after the last injection): 16%
- Highest serum calcium value obtained by any patient ([7]; 24-hours post-dose): 11.2 mg/dL
- Dizziness ([7]; 24 weeks): 4%
- Incidence of headache ([7]; 24 weeks): 13%
- Patients discontinued due to AEs ([7]; 24 weeks): 4%
- Proportion of patients that experienced TEAEs ([7]; 24 weeks): 78%
- TEAEs possibly or probably related to study treatment ([7]; 24 weeks): 29%
- Treatment-related TEAEs ([7]; extension to 48 weeks): 21%
